Test results as given in ChEMBL document CHEMBL2311449, “Synthesis and evaluation of diphenylphosphinic amides and diphenylphosphine oxides as inhibitors of Kv1.5” (Bioorg Med Chem Lett, 2013).
≈ marks a conversion by molar mass, not a printed value.

What was measured:
[1] = Lipophilicity, log D of compound at pH 7.4; format: physicochemical; settings: buffer
[2] = target: Potassium voltage-gated channel subfamily A member 5 (Homo sapiens, UniProt P22460); experiment: Inhibition of human Kv1.5 channel expressed in CHO cells by high throughput planar patch clamp assay; format: cell-based
Potassium voltage-gated channel subfamily A member 5, sequence (P22460 whole entry): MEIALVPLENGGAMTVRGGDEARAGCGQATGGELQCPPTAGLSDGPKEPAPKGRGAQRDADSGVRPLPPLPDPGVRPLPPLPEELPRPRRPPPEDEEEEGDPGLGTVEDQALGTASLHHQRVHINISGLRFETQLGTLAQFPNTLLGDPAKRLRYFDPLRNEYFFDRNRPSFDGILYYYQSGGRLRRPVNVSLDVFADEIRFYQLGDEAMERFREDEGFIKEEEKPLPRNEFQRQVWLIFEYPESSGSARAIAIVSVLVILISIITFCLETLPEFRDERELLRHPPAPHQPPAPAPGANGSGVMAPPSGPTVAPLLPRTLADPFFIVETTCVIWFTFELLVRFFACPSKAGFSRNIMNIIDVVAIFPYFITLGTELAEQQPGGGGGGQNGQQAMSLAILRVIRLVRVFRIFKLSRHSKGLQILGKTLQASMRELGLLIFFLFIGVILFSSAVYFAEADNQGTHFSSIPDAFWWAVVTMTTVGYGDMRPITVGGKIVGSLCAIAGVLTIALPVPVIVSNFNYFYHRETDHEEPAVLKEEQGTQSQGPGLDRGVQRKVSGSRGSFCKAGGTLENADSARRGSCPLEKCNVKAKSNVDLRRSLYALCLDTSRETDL

[3] = target: Intermediate conductance calcium-activated potassium channel protein 4 (Homo sapiens, UniProt O15554); experiment: Inhibition of IK channel (unknown origin)
Intermediate conductance calcium-activated potassium channel protein 4, sequence (O15554 whole entry): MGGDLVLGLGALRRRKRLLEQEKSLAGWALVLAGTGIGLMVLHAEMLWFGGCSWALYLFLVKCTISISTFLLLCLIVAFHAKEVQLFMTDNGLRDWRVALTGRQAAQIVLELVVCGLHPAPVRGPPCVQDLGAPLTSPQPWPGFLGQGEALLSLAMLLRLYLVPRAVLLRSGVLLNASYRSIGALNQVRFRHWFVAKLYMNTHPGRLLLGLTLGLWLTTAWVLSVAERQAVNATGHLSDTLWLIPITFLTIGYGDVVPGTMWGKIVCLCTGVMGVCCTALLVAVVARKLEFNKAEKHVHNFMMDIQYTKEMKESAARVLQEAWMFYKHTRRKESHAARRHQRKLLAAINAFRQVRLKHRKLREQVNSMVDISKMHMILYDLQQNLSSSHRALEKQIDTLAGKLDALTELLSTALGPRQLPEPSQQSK

[4] = target: Voltage-gated inwardly rectifying potassium channel KCNH2 (Homo sapiens, UniProt Q12809)
Voltage-gated inwardly rectifying potassium channel KCNH2, sequence (Q12809 whole entry): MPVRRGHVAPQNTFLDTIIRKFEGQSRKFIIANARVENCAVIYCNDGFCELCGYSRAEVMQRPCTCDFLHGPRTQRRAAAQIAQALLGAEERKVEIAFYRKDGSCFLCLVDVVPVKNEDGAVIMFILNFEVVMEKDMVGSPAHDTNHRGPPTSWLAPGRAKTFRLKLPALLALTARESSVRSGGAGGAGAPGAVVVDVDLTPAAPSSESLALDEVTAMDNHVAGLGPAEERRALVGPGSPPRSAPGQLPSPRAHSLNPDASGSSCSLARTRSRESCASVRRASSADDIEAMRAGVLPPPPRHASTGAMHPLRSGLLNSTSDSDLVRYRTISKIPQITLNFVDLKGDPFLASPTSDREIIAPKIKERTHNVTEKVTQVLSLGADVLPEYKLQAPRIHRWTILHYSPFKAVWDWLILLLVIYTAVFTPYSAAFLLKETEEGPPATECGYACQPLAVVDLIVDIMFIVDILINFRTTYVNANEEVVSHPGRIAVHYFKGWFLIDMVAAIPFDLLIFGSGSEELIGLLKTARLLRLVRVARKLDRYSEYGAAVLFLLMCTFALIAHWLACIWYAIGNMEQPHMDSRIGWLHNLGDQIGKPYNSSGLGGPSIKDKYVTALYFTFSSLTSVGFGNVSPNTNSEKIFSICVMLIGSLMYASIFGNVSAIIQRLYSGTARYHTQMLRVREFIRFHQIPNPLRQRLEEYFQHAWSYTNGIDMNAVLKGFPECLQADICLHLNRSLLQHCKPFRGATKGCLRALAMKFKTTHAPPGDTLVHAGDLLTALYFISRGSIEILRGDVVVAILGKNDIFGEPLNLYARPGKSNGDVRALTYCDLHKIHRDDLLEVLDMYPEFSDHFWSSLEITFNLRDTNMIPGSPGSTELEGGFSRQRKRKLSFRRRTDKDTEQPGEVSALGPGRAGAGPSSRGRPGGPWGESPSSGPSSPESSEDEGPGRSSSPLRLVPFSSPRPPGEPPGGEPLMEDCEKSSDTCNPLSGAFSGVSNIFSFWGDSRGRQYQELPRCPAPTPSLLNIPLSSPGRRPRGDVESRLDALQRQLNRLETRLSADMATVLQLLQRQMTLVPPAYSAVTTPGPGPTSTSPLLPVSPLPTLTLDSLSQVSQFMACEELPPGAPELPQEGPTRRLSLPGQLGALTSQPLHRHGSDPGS

Oryctolagus cuniculus [5] = experiment: Toxicity in New Zealand white rabbit assessed as CNS effect at 0.1 and 1 umol/kg/min; format: organism-based, Central nervous system; settings: in vivo
[6] = Oral bioavailability in rat; format: ADME, organism-based; settings: in vivo
[7] = Clearance in rat; format: ADME, organism-based; settings: in vivo
[8] = Solubility of the compound at pH 7.4; format: physicochemical; settings: buffer
[9] = Apparent permeability of the compound in human Caco2 cells; format: ADME, cell-based; settings: Caco-2
[10] = Intrinsic clearance in human liver microsomes; format: ADME, Microsome; settings: read-out: CLH
Oryctolagus cuniculus [11] = organism: Oryctolagus cuniculus; experiment: Toxicity in New Zealand white rabbit assessed as CNS effect at plasma concentration of 3 to 4 times 20% change in atrium effective refractory period; format: organism-based; settings: in vivo
Oryctolagus cuniculus [12] = experiment: Increase of effective refractory period in New Zealand white rabbit assessed as maximum change in QT interval at 0.1 and 1 umol/kg/min for 15 mins infusions; format: functional
Plasma = experiment: Unbound steady state plasma concentration in New Zealand white rabbit assessed as concentration required to 20% change in atrium effective refractory period at 0.1 and 1 umol/kg/min for 15 mins infusions; format: ADME, cell-free, Oryctolagus cuniculus; settings: 0.25 h

Structure (SMILES) | IC50 [2] [µM] | IC50 [3] [µM] | IC50 [4] [µM] | other results
CC(C)[C@@H]1CC[C@@H](C)C[C@@H]1P(=O)(c1ccccc1)c1ccccc1 | – | – | – | logD [1]: 6
c1ccc([C@H]([C@@H](c2ccccc2)N2CCCCC2)N2CCCCC2)cc1 | 1.7 | – | – | –
CCCN(c1cccc(C#N)c1)P(=O)(c1ccccc1)c1ccccc1 | 0.2 | 2.7 | > 33 | –
CCCN(c1cccc(S(C)(=O)=O)c1)P(=O)(c1ccccc1)c1ccccc1 | 0.93 | > 33 | > 33 | Activity (Oryctolagus cuniculus [5]): Toxic
COc1ccc(-c2ncccc2NP(=O)(c2ccccc2)c2ccccc2)cc1 | 17 | – | > 33 | –
O=P(Nc1cc(F)ccc1-n1cccn1)(c1ccccc1)c1ccccc1 | 4.1 | 7.8 | > 33 | –
O=P(NCc1ccccc1-c1cccnc1)(c1ccccc1)c1ccccc1 | 2.3 | > 33 | > 33 | –
O=P(c1ccccc1)(c1ccccc1)C(c1cccnc1)c1cccnc1 | 0.18 | 1 | – | –
O=P(NCc1cccnc1-c1cccc(Cl)c1)(c1ccccc1)c1ccccc1 | 0.33 | 4.9 | – | –
N#Cc1cccc(-c2ncccc2CNP(=O)(c2ccccc2)c2ccccc2)c1 | 0.54 | 7.7 | – | Activity (Oryctolagus cuniculus [5]): Toxic
O=P(NCc1cccnc1-c1cc(Cl)cc(Cl)c1)(c1ccccc1)c1ccccc1 | 0.08 | 13 | – | –
O=P(NCc1cccnc1-c1cccnc1)(c1ccccc1)c1ccccc1 | 2.7 | 33 | – | –
CCCN(c1cccnc1)P(=O)(c1ccccc1)c1ccccc1 | 0.12 | 14 | > 33 | bioavailability [6]: 55%; clearance [7]: 11 mL/min/kg; solubility [8]: 91 µM (≈ 30.6 µg/mL); Papp [9]: 30 ×10⁻⁶ cm/s; microsomal CLint [10]: 158 µL/min/mg; Activity (Oryctolagus cuniculus [11]): Toxic; Activity (Oryctolagus cuniculus [12]): 23%; logD [1]: 2.6; Cp(f)ss (Plasma): 800 nM
O=P(Nc1cccnc1)(c1ccccc1)c1ccccc1 | > 30 | – | > 33 | –
O=P(c1ccccc1)(c1ccccc1)N(c1cccnc1)c1cccnc1 | 1.6 | – | – | –
O=P(c1ccccc1)(c1ccccc1)N(Cc1ccccn1)c1cccnc1 | 0.53 | 10 | > 33 | Activity (Oryctolagus cuniculus [5]): Toxic
COCCN(c1cccnc1)P(=O)(c1ccccc1)c1ccccc1 | 0.62 | > 33 | > 33 | –
N#CCCCN(c1cccnc1)P(=O)(c1ccccc1)c1ccccc1 | 1.9 | 31 | > 33 | –
O=P(c1ccccc1)(c1ccccc1)N(Cc1ccccn1)Cc1ccccn1 | 1.3 | > 33 | > 33 | Activity (Oryctolagus cuniculus [5]): Toxic
CCCN(c1cncnc1)P(=O)(c1ccccc1)c1ccccc1 | 1 | > 33 | – | Activity (Oryctolagus cuniculus [11]): Toxic; Activity (Oryctolagus cuniculus [12]): <10%; Cp(f)ss (Plasma): 600 nM
O=P(c1ccccc1)(c1ccccc1)C(c1ccccc1)c1cccnc1 (racemic) | 0.1 | 0.5 | – | –
O=P(c1ccccc1)(c1ccccc1)C(c1cccnc1)N1CCCCC1 (racemic) | 0.14 | 1.8 | – | –
CCCNC(c1cccnc1)P(=O)(c1ccccc1)c1ccccc1 (racemic) | 0.75 | 14 | – | –
